Laboratory results as given in ChEMBL document CHEMBL5518215, “Unlocking Antibacterial Potential: Key-Site-Based Regulation of Antibacterial Spectrum of Peptides” (J Med Chem, 2024).
Active and inactive are the calls of the source. The calls are words filed in the database; no cut-off is given here.

What was measured:
[1] = test system: Staphylococcus aureus; assay: Induction of morphological changes in Staphylococcus aureus 29213 assessed as changes in cell surface by measuring signs of disruption by using scanning electron microscopy; type: functional, organism-based
[2] = test system: Escherichia coli; assay: Antibacterial activity against Escherichia coli 25922 assessed as absence bacterial growth measured after 18 to 24 hrs incubation at pH 4 by NCCLS method; type: functional; conditions: time 18-24 hrs
[3] = Cytotoxicity against human HEK-293T cells assessed as cell survival rate measured after 8 hrs by MTT assay; type: toxicity, cell-based
[4] = test system: Escherichia coli; assay: Antimicrobial activity against Escherichia coli 25922 assessed as absence bacterial growth measured after 18 to 24 hrs incubation by NCCLS method; type: functional; conditions: time 18-24 hrs
[5] = test system: Staphylococcus aureus; assay: Antimicrobial activity against Methicillin-resistant Staphylococcus aureus 43300 assessed as bacterial killing measured after 16 hrs incubation; type: functional
[6] = test system: Escherichia coli; assay: Effect on inner membrane fluidity in Escherichia coli 25922 assessed as reduction in intracellular membrane fluidity by measuring fluorescence intensity of Laurdan-GP after 60 mins by spectrophotometry; type: functional, organism-based
[7] = test system: Listeria monocytogenes; assay: Antimicrobial activity against Listeria monocytogenes 1.10753 assessed as absence bacterial growth measured after 18 to 24 hrs incubation by NCCLS method; type: functional; conditions: time 18-24 hrs
[8] = test system: Pseudomonas aeruginosa; assay: Antimicrobial activity against Pseudomonas aeruginosa 27853 assessed as absence bacterial growth measured after 18 to 24 hrs incubation by NCCLS method; type: functional; conditions: time 18-24 hrs
[9] = Cytotoxicity against mouse RAW264.7 cells assessed as cell survival rate measured after 8 hrs by MTT assay; type: toxicity, cell-based
[10] = test system: Escherichia coli; assay: Antibacterial activity against Escherichia coli 25922 assessed as bactericidal rate by measuring reduction in bacterial count at 1 times MBC concentration measured at 15 secs by time-kill kinetic assay; type: functional; conditions: time 15 sec; 15 s
[11] = test system: Escherichia coli; assay: Antimicrobial activity against Escherichia coli 25922 assessed as absence bacterial growth measured after 18 to 24 hrs incubation in presence of NH4Cl by NCCLS method; type: functional; conditions: time 18-24 hrs
[12] = test system: Escherichia coli; assay: Antimicrobial activity against Escherichia coli 25922 assessed as absence bacterial growth measured after 18 to 24 hrs incubation in presence of 50% serum by NCCLS method; type: functional; conditions: time 18-24 hrs
[13] = test system: Lipoteichoic acid; assay: Binding affinity to Staphylococcus aureus LTA assessed as fluorescence intensity measured after 1 hr by spectrophotometry; conditions: dose 1-64 µM
[14] = test system: Lipopolysaccharide (LPS); assay: Binding affinity to Escherichia coli O111:B4 LPS assessed as fluorescence intensity measured after 1 hr by spectrophotometry; type: subcellular; conditions: dose 2-16 µM
[15] = test system: Staphylococcus aureus; assay: Effect on inner membrane fluidity in Staphylococcus aureus 29213 assessed as reduction in intracellular membrane fluidity by measuring fluorescence intensity of Laurdan-GP after 60 mins by spectrophotometry; type: functional, organism-based
[16] = test system: Escherichia coli; assay: Antibacterial activity against Escherichia coli 25922 assessed as absence bacterial growth measured after 8 hrs treated with H2O2; type: functional
[17] = test system: Pseudomonas aeruginosa; assay: Antimicrobial activity against Pseudomonas aeruginosa 27853 assessed as bacterial killing measured after 16 hrs incubation; type: functional
[18] = test system: Escherichia coli; assay: Antibacterial activity against Escherichia coli 25922 assessed as absence bacterial growth measured after 18 to 24 hrs incubation at pH 10 by NCCLS method; type: functional; conditions: time 18-24 hrs
[19] = test system: Staphylococcus epidermidis; assay: Antimicrobial activity against Staphylococcus epidermidis 12228 assessed as absence bacterial growth measured after 18 to 24 hrs incubation by NCCLS method; type: functional; conditions: time 18-24 hrs
[20] = test system: Escherichia coli; assay: Antibacterial activity against Escherichia coli 25922 assessed as absence bacterial growth measured after 4 hrs treated with H2O2; type: functional
[21] = test system: Escherichia coli; assay: Antimicrobial activity against Escherichia coli 25922 assessed as absence bacterial growth measured after 18 to 24 hrs incubation in presence of KCl by NCCLS method; type: functional; conditions: time 18-24 hrs
[22] = test system: Escherichia coli; assay: Antimicrobial activity against Escherichia coli K88 assessed as absence bacterial growth measured after 18 to 24 hrs incubation by NCCLS method; type: functional; conditions: time 18-24 hrs
[23] = test system: Cell membrane; assay: Induction of cytoplasmic membrane disruption in Escherichia coli 25922 assessed as increase in fluorescence intensity at 2 to 64 uM by DiSC3-5 probe based assay; type: cell membranes; conditions: dose 2-64 µM, time <= 30.0 min, TDE = time-dependent effect
[24] = test system: Escherichia coli; assay: Antimicrobial activity against Escherichia coli 25922 assessed as absence bacterial growth measured after 18 to 24 hrs incubation in presence of NaCl by NCCLS method; type: functional; conditions: time 18-24 hrs
[25] = test system: Erythrocyte; assay: Hemolytic activity in human RBC at effective concentration measured after 1 hr by microplate reader analysis; type: toxicity, cell-based
[26] = test system: Acinetobacter baumannii; assay: Antimicrobial activity against Acinetobacter baumannii 1.6769 assessed as absence bacterial growth measured after 18 to 24 hrs incubation by NCCLS method; type: functional; conditions: time 18-24 hrs
[27] = test system: Escherichia coli; assay: Antibacterial activity against Escherichia coli 25922 assessed as absence bacterial growth measured after 18 to 24 hrs incubation at pH 6 by NCCLS method; type: functional; conditions: time 18-24 hrs
[28] = test system: Salmonella typhimurium; assay: Antimicrobial activity against Salmonella typhimurium C7731 assessed as absence bacterial growth measured after 18 to 24 hrs incubation by NCCLS method; type: functional, Salmonella enterica subsp. enterica serovar Typhimurium; conditions: Salmonella enterica, time 18-24 hrs
[29] = test system: Escherichia coli; assay: Antibacterial activity against Escherichia coli 25922 assessed as absence bacterial growth measured after 12 hrs treated with H2O2; type: functional
[30] = test system: Staphylococcus aureus; assay: Outer membrane permeabilization/cell wall in Staphylococcus aureus 29213 assessed as fluorescence intensity of NPN measured at 2 to 128 uM after 1 hr by spectrophotometry; type: functional, organism-based; conditions: dose 2-128 µM
[31] = test system: Staphylococcus epidermidis; assay: Antimicrobial activity against Staphylococcus epidermidis 12228 assessed as bacterial killing measured after 16 hrs incubation; type: functional
[32] = test system: Escherichia coli; assay: Antimicrobial activity against Escherichia coli 25922 assessed as absence bacterial growth measured after 18 to 24 hrs incubation in presence of 12.5% serum by NCCLS method; type: functional; conditions: time 18-24 hrs
[33] = test system: DNA; assay: Binding affinity to DNA in Staphylococcus aureus 29213 incubated for 1 hr by electrophoresis; type: nucleic-acid assay

**Q.** With H-GKLWLKAGKLWLKGGKLWLKG-NH2 as the substance, how does the Activity [1] read?
**A.** Its Activity is “Active”.

**Q.** And the MIC [2]?
**A.** Its MIC is greater than 64 µM.

**Q.** And the IC50 at 8 h [3]?
**A.** Its IC50 at 8 h is greater than 64 µM.

**Q.** And the MIC [4]?
**A.** The MIC was 2 µM.

**Q.** And the MBC [5]?
**A.** The MBC was 4 µM.

**Q.** What about the Activity [6] of the same substance?
**A.** The Activity was “Active”.

**Q.** And the MIC [7]?
**A.** The MIC was greater than 32 µM.

**Q.** What about the MIC [8] of the same substance?
**A.** Its MIC is 4 µM.

**Q.** What about the IC50 at 8 h [9] of the same substance?
**A.** Its IC50 at 8 h is greater than 64 µM.

**Q.** And the “inhibition (INH)” value [10]?
**A.** The value was 99.99%.

**Q.** And the MIC [11]?
**A.** Its MIC is 2 µM.

**Q.** What about the MIC [12] of the same substance?
**A.** The MIC was greater than 32 µM.

**Q.** And the Activity [13]?
**A.** Its Activity is “Dose-Dependent Effect”.

**Q.** What about the Activity [14] of the same substance?
**A.** The Activity was “Dose-Dependent Effect”.

**Q.** And the Activity [15]?
**A.** The Activity was “Active”.

**Q.** And the MIC [16]?
**A.** The MIC was 2 µM.

**Q.** And the MBC [17]?
**A.** The MBC was 8 µM.

**Q.** And the MIC [18]?
**A.** Its MIC is 2 µM.

**Q.** What about the MIC [19] of the same substance?
**A.** The MIC was 4 µM.

**Q.** And the MIC [20]?
**A.** Its MIC is 2 µM.

**Q.** And the MIC [21]?
**A.** The MIC was 2 µM.

**Q.** What about the MIC [22] of the same substance?
**A.** Its MIC is 0.5 µM.

**Q.** What about the Activity [23] of the same substance?
**A.** Its Activity is “Tde”.

**Q.** What about the MIC [24] of the same substance?
**A.** The MIC was 16 µM.

**Q.** What about the HC10 [25] of the same substance?
**A.** The HC10 was greater than 128 µM.

**Q.** And the MIC [26]?
**A.** Its MIC is 2 µM.

**Q.** What about the MIC [27] of the same substance?
**A.** The MIC was 2 µM.

**Q.** What about the MIC [28] of the same substance?
**A.** The MIC was 8 µM.

**Q.** What about the MIC [29] of the same substance?
**A.** Its MIC is 4 µM.

**Q.** What about the permeability [30] of the same substance?
**A.** The permeability was “Permeable”.

**Q.** What about the MBC [31] of the same substance?
**A.** The MBC was 8 µM.

**Q.** And the MIC [32]?
**A.** Its MIC is 16 µM.

**Q.** What about the Activity [33] of the same substance?
**A.** Its Activity is “Active”.
